Reference: BindingDB's records for doi:10.1016/s0960-894x(02)01027-2 (Glaxosmithkline, 2003)

These compounds were tested against Methionine--tRNA ligase (Staphylococcus aureus) (assay: Compound tested for inhibition of Staphylococcus aureus MRS (methionyl tRNA synthetase) in aminoacylation assay).

| SMILES | IC50 [nM] |
| --- | --- |
| Oc1cc(NCCCNC2CCNc3c(Br)cc(Cl)cc32)nc2ccccc12 (stereo unspecified) | < 3 |
| O=c1cc(NCCCNC2CCOc3c(Cl)cc(Cl)cc32)[nH]c2ccccc12 (stereo unspecified) | < 3 |
| Oc1cc(NCCCNC2CCNc3c(Cl)cc(Br)cc32)nc2ccccc12 (stereo unspecified) | < 3 |
| C=CCc1cc(I)cc(CNCCCNc2cc(O)c3ccccc3n2)c1OCC | < 3 |
| Oc1cc(NCCCNC2CCOc3c(Br)cc(Br)cc32)nc2ccccc12 (stereo unspecified) [2-(3-(6,8-dibromo-3,4-dihydro-2H-chromen-4-ylamino)propylamino)quinolin-4(1H)-one] | 7.8 |
| CCOC(=O)c1cc(I)cc(CNCCCNc2cc(O)c3ccccc3n2)c1OCC [2-Ethoxy-5-iodo-3-{[3-(4-oxo-1,4-dihydro-quinolin-2-ylamino)-propylamino]-methyl}-benzoic acid ethyl ester] | 21 |
| CCOc1c(CO)cc(I)cc1CNCCCNc1cc(O)c2ccccc2n1 [2-[3-(2-Ethoxy-3-hydroxymethyl-5-iodo-benzylamino)-propylamino]-1H-quinolin-4-one] | 4.1 |
| CCOc1c(I)cc(OC)cc1CNCCCNc1cc(O)c2ccccc2n1 [2-[3-(2-Ethoxy-3-iodo-5-methoxy-benzylamino)-propylamino]-1H-quinolin-4-one] | 3.3 |
| CCOc1c(I)cc(COC)cc1CNCCCNc1cc(O)c2ccccc2n1 [2-[3-(2-Ethoxy-3-iodo-5-methoxymethyl-benzylamino)-propylamino]-1H-quinolin-4-one] | 17 |
| CCOc1c(I)cc(C)cc1CNCCCNc1cc(O)c2ccccc2n1 [2-[3-(2-Ethoxy-3-iodo-5-methyl-benzylamino)-propylamino]-1H-quinolin-4-one] | 7.2 |
| CCOc1c(C)cc(SC)cc1CNCCCNc1cc(O)c2ccccc2n1 [2-[3-(2-Ethoxy-3-methyl-5-methylsulfanyl-benzylamino)-propylamino]-1H-quinolin-4-one] | 5.1 |
| CCOc1c(C)cc(C(F)(F)F)cc1CNCCCNc1cc(O)c2ccccc2n1 [2-[3-(2-Ethoxy-3-methyl-5-trifluoromethyl-benzylamino)-propylamino]-1H-quinolin-4-one] | 6.8 |
| CCOc1c(I)cc(CO)cc1CNCCCNc1cc(O)c2ccccc2n1 [2-[3-(2-Ethoxy-5-hydroxymethyl-3-iodo-benzylamino)-propylamino]-1H-quinolin-4-one] | 14 |
| CCOc1c(CNCCCNc2cc(O)c3ccccc3n2)cc(I)cc1COC [2-[3-(2-Ethoxy-5-iodo-3-methoxymethyl-benzylamino)-propylamino]-1H-quinolin-4-one] | 9.4 |
| CCOc1c(C)cc(I)cc1CNCCCNc1cc(O)c2ccccc2n1 [2-[3-(2-Ethoxy-5-iodo-3-methyl-benzylamino)-propylamino]-1H-quinolin-4-one] | 3.2 |
| Oc1cc(NCCCNCc2ccc(Cl)c(Cl)c2)nc2ccccc12 [2-[3-(3,4-Dichloro-benzylamino)-propylamino]-1H-quinolin-4-one] | 16 |

The remaining lines, values ahead:

| IC50 [nM] | SMILES |
| --- | --- |
| 23 | CCOc1c(Br)cc([S+](C)[O-])cc1CNCCCNc1cc(O)c2ccccc2n1 (stereo unspecified) [2-[3-(3-Bromo-2-ethoxy-5-methanesulfinyl-benzylamino)-propylamino]-1H-quinolin-4-one] |
| 120 | CCOc1c(CNCCCNc2cc(O)c3ccccc3n2)cc(I)cc1C(C)(C)C [2-[3-(3-tert-Butyl-2-ethoxy-5-iodo-benzylamino)-propylamino]-1H-quinolin-4-one] |
| 5.1 | Oc1cc(NCCCNC2CCc3c(Cl)cc(Cl)cc32)nc2ccccc12 (stereo unspecified) [2-[3-(4,6-Dichloro-indan-1-ylamino)-propylamino]-1H-quinolin-4-one] |
| 3.8 | Oc1cc(NCCCNC2CCCc3c(Cl)cc(Cl)cc32)nc2ccccc12 (stereo unspecified) [2-[3-(5,7-Dichloro-1,2,3,4-tetrahydro-naphthalen-1-ylamino)-propylamino]-1H-quinolin-4-one] |
| 6 | Oc1cc(NCCCNC2COc3c(Cl)cc(Cl)cc32)nc2ccccc12 (stereo unspecified) [2-[3-(5,7-Dichloro-2,3-dihydro-benzofuran-3-ylamino)-propylamino]-1H-quinolin-4-one] |
| 8 | Oc1cc(NCCCNC2CCNc3c(Br)cc(Br)cc32)nc2ccccc12 (stereo unspecified) [2-[3-(6,8-Dibromo-1,2,3,4-tetrahydro-quinolin-4-ylamino)-propylamino]-1H-quinolin-4-one] |
| 23 | Oc1cc(NCCCNC2CCNc3c(Cl)cc(Cl)cc32)nc2ccccc12 (stereo unspecified) [2-[3-(6,8-Dichloro-1,2,3,4-tetrahydro-quinolin-4-ylamino)-propylamino]-1H-quinolin-4-one] |
| 4.3 | CCc1cc(Br)cc2c1NCCC2NCCCNc1cc(O)c2ccccc2n1 (stereo unspecified) [2-[3-(6-Bromo-8-ethyl-1,2,3,4-tetrahydro-quinolin-4-ylamino)-propylamino]-1H-quinolin-4-one] |
| 9.4 | Cc1cc(Br)cc2c1NCCC2NCCCNc1cc(O)c2ccccc2n1 (stereo unspecified) [2-[3-(6-Bromo-8-methyl-1,2,3,4-tetrahydro-quinolin-4-ylamino)-propylamino]-1H-quinolin-4-one] |
| 9.4 | Oc1cc(NCCCNC2CCOc3c(I)cc(Cl)cc32)nc2ccccc12 (stereo unspecified) [2-[3-(6-Chloro-8-iodo-chroman-4-ylamino)-propylamino]-1H-quinolin-4-one] |
| 12 | CCc1cc(I)c2c(c1)C(NCCCNc1cc(O)c3ccccc3n1)CCN2 (stereo unspecified) [2-[3-(6-Ethyl-8-iodo-1,2,3,4-tetrahydro-quinolin-4-ylamino)-propylamino]-1H-quinolin-4-one] |
| 12 | Oc1cc(NCCCNC2CCOc3c(Cl)cc(I)cc32)nc2ccccc12 (stereo unspecified) [2-[3-(8-Chloro-6-iodo-chroman-4-ylamino)-propylamino]-1H-quinolin-4-one] |
| 170 | CCOC(=O)c1cc(I)c(OCC)c(CNCCCNc2cc(O)c3ccccc3n2)c1 [4-Ethoxy-3-iodo-5-{[3-(4-oxo-1,4-dihydro-quinolin-2-ylamino)-propylamino]-methyl}-benzoic acid ethyl ester] |
| 3.9 | CCOc1c(C)cc(C#N)cc1CNCCCNc1cc(O)c2ccccc2n1 [4-Ethoxy-3-methyl-5-{[3-(4-oxo-1,4-dihydro-quinolin-2-ylamino)-propylamino]-methyl}-benzonitrile] |
| 4 | CCOc1c(C#N)cc(Br)cc1CNCCCNc1cc(O)c2ccccc2n1 [5-Bromo-2-ethoxy-3-{[3-(4-oxo-1,4-dihydro-quinolin-2-ylamino)-propylamino]-methyl}-benzonitrile] |
| 13 | CCOc1c(CNCCCNc2cc(O)c3ccccc3n2)cc(Br)cc1OC [TCMDC-139833] |
| 12 | CCOc1c(CNCCCNc2cc(O)c3ccccc3n2)cc(I)cc1OC [TCMDC-139847] |

What follows are compounds tested against Methionine--tRNA ligase (Staphylococcus aureus) (assay: Compound tested for inhibition of Staphylococcus aureus MRS(methionyl tRNA synthetase) in aminoacylation assay).

| SMILES | IC50 [nM] |
| --- | --- |
| Oc1cc(NCCCNCc2ccccc2)nc2ccccc12 [2-(3-Benzylamino-propylamino)-1H-quinolin-4-one] | 300 |
| Oc1cc(NCCCNCc2cccc(Cl)c2Cl)nc2ccccc12 [2-[3-(2,3-Dichloro-benzylamino)-propylamino]-1H-quinolin-4-one] | 15 |
| Oc1cc(NCCCNCc2cc(Cl)ccc2Cl)nc2ccccc12 [2-[3-(2,5-Dichloro-benzylamino)-propylamino]-1H-quinolin-4-one] | 9 |
| C=CCOc1c(Cl)cc(Cl)cc1CNCCCNc1cc(O)c2ccccc2n1 [2-[3-(2-Allyloxy-3,5-dichloro-benzylamino)-propylamino]-1H-quinolin-4-one] | 7.2 |
| Nc1c(Br)cc(Br)cc1CNCCCNc1cc(O)c2ccccc2n1 [2-[3-(2-Amino-3,5-dibromo-benzylamino)-propylamino]-1H-quinolin-4-one] | 9.1 |
| Oc1cc(NCCCOCc2ccc(Cl)c(Cl)c2)nc2ccccc12 [2-[3-(3,4-Dichloro-benzyloxy)-propylamino]-1H-quinolin-4-one] | 50 |

Continued, values first:

| IC50 [nM] | SMILES |
| --- | --- |
| 170 | Oc1cc(NCCCSCc2ccc(Cl)c(Cl)c2)nc2ccccc12 [2-[3-(3,4-Dichloro-benzylsulfanyl)-propylamino]-1H-quinolin-4-one] |
| 4.4 | CCOc1c(Br)cc(Br)cc1CNCCCNc1cc(O)c2ccccc2n1 [2-[3-(3,5-Dibromo-2-ethoxy-benzylamino)-propylamino]-1H-quinolin-4-one] |
| 18 | CCNc1c(Br)cc(Br)cc1CNCCCNc1cc(O)c2ccccc2n1 [2-[3-(3,5-Dibromo-2-ethylamino-benzylamino)-propylamino]-1H-quinolin-4-one] |
| 11 | CNc1c(Br)cc(Br)cc1CNCCCNc1cc(O)c2ccccc2n1 [2-[3-(3,5-Dibromo-2-methylamino-benzylamino)-propylamino]-1H-quinolin-4-one] |
| 14 | CCOc1c(Cl)cc(Cl)cc1CNCCCNc1cc(O)c2ccccc2n1 [2-[3-(3,5-Dichloro-2-ethoxy-benzylamino)-propylamino]-1H-quinolin-4-one] |
| 29 | CC(C)Oc1c(Cl)cc(Cl)cc1CNCCCNc1cc(O)c2ccccc2n1 [2-[3-(3,5-Dichloro-2-isopropoxy-benzylamino)-propylamino]-1H-quinolin-4-one] |
| 3 | Oc1cc(NCCCNCc2cc(Cl)cc(Cl)c2)nc2ccccc12 [2-[3-(3,5-Dichloro-benzylamino)-propylamino]-1H-quinolin-4-one] |
| 61 | CCOc1cc(Br)c(OCC)c(CNCCCNc2cc(O)c3ccccc3n2)c1 [2-[3-(3-Bromo-2,5-diethoxy-benzylamino)-propylamino]-1H-quinolin-4-one] |
| 8.8 | CCOc1c(Br)cc(I)cc1CNCCCNc1cc(O)c2ccccc2n1 [2-[3-(3-Bromo-2-ethoxy-5-iodo-benzylamino)-propylamino]-1H-quinolin-4-one] |
| 3.1 | CCOc1c(Br)cc(OC)cc1CNCCCNc1cc(O)c2ccccc2n1 [2-[3-(3-Bromo-2-ethoxy-5-methoxy-benzylamino)-propylamino]-1H-quinolin-4-one] |
| 4.9 | CCOc1c(Br)cc(C)cc1CNCCCNc1cc(O)c2ccccc2n1 [2-[3-(3-Bromo-2-ethoxy-5-methyl-benzylamino)-propylamino]-1H-quinolin-4-one] |
| 4.7 | CCOc1c(Br)cc(SC)cc1CNCCCNc1cc(O)c2ccccc2n1 [2-[3-(3-Bromo-2-ethoxy-5-methylsulfanyl-benzylamino)-propylamino]-1H-quinolin-4-one] |
